Test results from patent US20060009415A1, “Corneal epithelial migration promoter” (priority 2000, published 2006).

System: corneal epithelial layer of rabbit cornea blocks
Experiment: Corneal epithelial migration in rabbit cornea tissue culture (method of Nishida et al.)
Assay type: cell-based, male Japanese white rabbits
Conditions: for Corneal Epithelial Migration Rate (%): 24 h, 37.5° C., 5% CO2, control set at 100%; for corneal epithelial migration promoting effect (in words): summary of Table 1, rabbit cornea tissue culture
Experimental: Using cornea specimen s collected from male Japanese white rabbits, the corneal epithelial migration length was used as an index in studying the cornea tissue culturing system according to the method of Nishida, et al. (J. Cell Biol., 97, 1653-1657 (1983)). Cornea blocks (6 specimens for each group) cut from rabbit cornea pieces were cultured in a culture solution (TCM-199) containing an invention compound at 37.5° C. and 5% CO2 for 24 h. After culturing, the cornea blocks were fixed in an ethanol/glacial acetic acid (95:5 by volume) mixture solution, followed by embedding with paraffin to form slices. After removal of the paraffin, the slices were subjected to hematoxylin-eosin staining, and the length of migration of the corneal epithelial layer was observed using a microscope. As a control, culturing was also performed using a culture solution not containing an invention compound.

[1] = compound 10 μM in culture solution (TCM-199)
[2] = compound 100 μM in culture solution (TCM-199)

SMILES | Corneal Epithelial Migration Rate (%) [1] [%] | corneal epithelial migration promoting effect (in words) | Corneal Epithelial Migration Rate (%) [2] [%]
Nc1ncnc2c1ncn2[C@@H]1O[C@H](COP(=O)([O-])OP(=O)([O-])O)[C@@H](O)[C@H]1O.[Na+].[Na+] [ADP-Na, adenosine 5′-diphosphate disodium] | 116.1 | significant corneal epithelial migration promoting effects | 
Nc1ncnc2c1ncn2[C@@H]1O[C@H](COP(=O)([O-])OP(=O)([O-])OP(=O)([O-])O)[C@@H](O)[C@H]1O.[Na+].[Na+].[Na+] [ATP-Na, adenosine 5′-triphosphate trisodium] | 119.3 | significant corneal epithelial migration promoting effects | 
O=c1ccn([C@@H]2O[C@H](COP(=O)([O-])OP(=O)([O-])OP(=O)([O-])OP(=O)([O-])OC[C@H]3O[C@@H](n4ccc(=O)[nH]c4=O)[C@H](O)[C@@H]3O)[C@@H](O)[C@H]2O)c(=O)[nH]1.[Na+].[Na+].[Na+].[Na+] [DUTP-Na, P^1, P^4-di(uridine-5′)tetraphosphate tetrasodium] |  | significant corneal epithelial migration promoting effects | 118.9
O=c1ccn([C@@H]2O[C@H](COP(=O)([O-])OP(=O)([O-])O)[C@@H](O)[C@H]2O)c(=O)[nH]1.[Na+].[Na+] [UDP-Na, uridine 5′-diphosphate di-sodium] |  | significant corneal epithelial migration promoting effects | 115.3
O=c1ccn([C@@H]2O[C@H](COP(=O)([O-])OP(=O)([O-])OP(=O)([O-])O)[C@@H](O)[C@H]2O)c(=O)[nH]1.[Na+].[Na+].[Na+] [UTP-Na, uridine 5′-triphosphate trisodium] |  | significant corneal epithelial migration promoting effects | 123.1
